{"source": "patent US9084778B2", "about": "“Topical compositions containing a retinoid of the oil-in-water emulsion type” (GALDERMA RESEARCH & DEVELOPMENT, priority 2012, dated 2015)", "key": {"[1]": {"experiment": "Maximum solubility in fat phase excipients determined by HPLC", "assay_type": "physicochemical", "text": "In order to obtain an oil in water emulsion containing a compound with the general formula (I) in the fat phase, pre-formulation studies have been conducted to provide evidence of the excipients allowing good solubilisation as well as good stability of the active ingredient.\n(1) List of fat phase excipients in which the maximum solubility has been determined by HPLC:\nThe limit, below which the compounds of general formula (1) are considered non-solubilized, is 0.1% by weight."}, "[2]": {"experiment": "Stability of compound A in its principal solvents", "assay_type": "physicochemical", "text": "(2) Stability of compound A in its principal solvents:\n(§1) The limits fixed for high stability are 95%-105% as a percentage relative to TO."}, "[3]": {"experiment": "Stability of compound A in mixtures of excipients (solvent/surfactants) determined by HPLC", "assay_type": "physicochemical", "text": "(3) Stability of compound A in mixtures of excipients (solvent/surfactants) determined by HPLC:\nStudies of stability of compound A solubilised in oils (in which it is stable) in the presence of surfactants have been conducted:\nas §1"}, "[4]": {"experiment": "\"Single time\" cutaneous penetration study ex vivo (Franz cells, 16 h)", "assay_type": "in vitro ADME", "conditions": "ex vivo human skin, the 2 formulae evaluated", "method": "Two types of cutaneous penetration studies were carried out ex vivo on human skin. In these studies compound A corresponds to 3″-tert-butyl-4′-(2-hydroxy-ethoxy)-4″-pyrrolidin-1-yl-[1,1′;3′,1″]-terphenyl-4-carboxylic acid.\n“Single Time” Cutaneous Penetration Study:\nIn this study the Formula is applied for 16 hours to the surface of the skin. After the application COMPOUND A is quantified in the different compartments of the skin: stratum corneum, epidermis, dermis and receiving liquid according to the validated bioanalysis method.\nThe bioanalysis was conducted by mass spectrometry in tandem by positive electrospray ionisation using a Xevo device (Waters). The limit of quantification for compound A is 1 ng/mL.\nThe conditions of LC/MS/MS developed enabled up to 0.1% of the doe applied in each of the compartments to be detected (unabsorbed dose, stratum, epidermis, dermis and receiving liquid).\nIn this type of “single point” study the parameters considered are: • a. The distribution profile in the different compartments (qualitative data) • b. The penetration in the epidermis+dermis compartment (numerical data) FIG. 1"}}, "data": [{"smiles": "CC(C)(C)c1cc(-c2cc(-c3ccc(C(=O)O)cc3)ccc2OCCO)ccc1N1CCCC1", "note": "[Compound A, 3″-tert-butyl-4′-(2-hydroxy-ethoxy)-4″-pyrrolidin-1-yl-[1,1′;3′,1″]-terphenyl-4-carboxylic acid]", "values": [{"measurement": "Maximum solubility", "setting": "[1]; in Arlasolve DMI (Dimethyl Isosorbide)", "value": 0.400, "unit": "%"}, {"measurement": "Maximum solubility", "setting": "[1]; in Benzyl alcohol (Benzyl Alcohol)", "value": 2.388, "unit": "%"}, {"measurement": "Maximum solubility", "setting": "[1]; in Brij 30 (Laureth-4)", "value": 2.03, "unit": "%"}, {"measurement": "Maximum solubility", "setting": "[1]; in Capryol 90 (Propylene glycol monocaprylate)", "value": 0.802, "unit": "%"}, {"measurement": "Maximum solubility", "setting": "[1]; in Crodamol IPM (Isopropyl myristate)", "value": "<0.1", "unit": "%"}, {"measurement": "Maximum solubility", "setting": "[1]; in Hydrolite 5P (Pentylene glycol)", "value": 0.482, "unit": "%"}, {"measurement": "Maximum solubility", "setting": "[1]; in Phenoxetol (Phenoxyethanol)", "value": 1.957, "unit": "%"}, {"measurement": "Stability results", "setting": "[2]; COMPOUND A 0.005% in Miglyol 812N (Caprylic/capric triglycerides), 40° C.", "value": "Stable/Ok 6 Months"}, {"measurement": "Stability results", "setting": "[2]; COMPOUND A 0.005% in Sweet almond oil, 40° C.", "value": "Stable/Ok 6 Months"}, {"measurement": "Stability results", "setting": "[2]; COMPOUND A 0.05% in Arlacel 83V Pharma (Sorbitan Sesquioleate), 40° C.", "value": "Stable/Ok 6 Months"}, {"measurement": "Stability results", "setting": "[2]; COMPOUND A 0.05% in Arlamol E (PPG-15 stearyl ether), 40° C.", "value": "Stable/Ok 6 Months"}, {"measurement": "Stability results", "setting": "[2]; COMPOUND A 0.05% in Arlasolve DMI (Dimethyl Isosorbide)", "value": "Unstable"}, {"measurement": "Stability results", "setting": "[2]; COMPOUND A 0.05% in Benzyl Alcohol", "value": "Unstable"}, {"measurement": "Stability results", "setting": "[2]; COMPOUND A 0.05% in Brij 30 (Laureth-4)", "value": "Unstable"}, {"measurement": "Stability results", "setting": "[2]; COMPOUND A 0.05% in Capryol 90 (Propylene glycol monocaprylate), 40° C.", "value": "Stable/Ok 6 Months"}, {"measurement": "Stability results", "setting": "[2]; COMPOUND A 0.05% in Crodamol DA (Diisopropyl Adipate), 40° C.", "value": "Stable/Ok 6 Months"}, {"measurement": "Stability results", "setting": "[2]; COMPOUND A 0.05% in Dipropylene Glycol Care (Dipropylene glycol)", "value": "Unstable"}, {"measurement": "Stability results", "setting": "[2]; COMPOUND A 0.05% in Eutanol G (Octyldodecanol)", "value": "Unstable"}, {"measurement": "Stability results", "setting": "[2]; COMPOUND A 0.05% in Labrafil M1944CS (Apricot Kernel Oil PEG-6 Ester), 40° C.", "value": "Stable/Ok 6 Months"}, {"measurement": "Stability results", "setting": "[2]; COMPOUND A 0.05% in Lauroglycol FCC (Propylene glycol laurate), 40° C.", "value": "Stable/Ok 6 Months"}, {"measurement": "Stability results", "setting": "[2]; COMPOUND A 0.05% in Marcol 152 (Parrafinum liquidum)", "value": "Unstable"}, {"measurement": "Stability results", "setting": "[2]; COMPOUND A 0.05% in Myritol PC (Propylene glycol dicaprylate/dicaprate)", "value": "Unstable"}, {"measurement": "Stability results", "setting": "[2]; COMPOUND A 0.05% in Phenoxetol (Phenoxyethanol), 40° C.", "value": "Stable/Ok 6 Months"}, {"measurement": "Stability results", "setting": "[3]; COMPOUND A 0.05% in Arlacel 165/Arlamol E, 40° C.", "value": "Stable/Ok 3 Months"}, {"measurement": "Stability results", "setting": "[3]; COMPOUND A 0.05% in Arlacel 165/Lauroglycol FCC", "value": "Unstable"}, {"measurement": "Stability results", "setting": "[3]; COMPOUND A 0.05% in Brij 721/Arlamol E, 40° C.", "value": "Stable/Ok 3 Months"}, {"measurement": "Stability results", "setting": "[3]; COMPOUND A 0.05% in Brij 721/Lauroglycol FCC, 40° C.", "value": "Stable/Ok 3 Months"}, {"measurement": "Stability results", "setting": "[3]; COMPOUND A 0.05% in Cremophor EL/Labrafil M1944CS", "value": "Unstable"}, {"measurement": "Stability results", "setting": "[3]; COMPOUND A 0.05% in Cremophor EL/Lauroglycol FCC", "value": "Unstable"}, {"measurement": "Stability results", "setting": "[3]; COMPOUND A 0.05% in Eumulgin B2/Arlamol E, 40° C.", "value": "Stable/Ok 3 Months"}, {"measurement": "Stability results", "setting": "[3]; COMPOUND A 0.05% in GlucateSS-Glucamate SSE-20/Arlamol E", "value": "Unstable"}, {"measurement": "Stability results", "setting": "[3]; COMPOUND A 0.05% in GlucateSS-Glucamate SSE-20/Lauroglycol FCC, 40° C.", "value": "Stable/Ok 3 Months"}, {"measurement": "Stability results", "setting": "[3]; COMPOUND A 0.05% in Simulsol M45/Crodamol DA", "value": "Unstable"}, {"measurement": "Stability results", "setting": "[3]; COMPOUND A 0.05% in Tween 80/Arlamol E", "value": "Unstable"}, {"measurement": "Stability results", "setting": "[3]; COMPOUND A 0.2% in Cremophor EL/Labrafil M1944CS", "value": "Unstable"}, {"measurement": "Stability results", "setting": "[3]; COMPOUND A 0.2% in Cremophor RH40/Crodamol DA", "value": "Unstable"}, {"measurement": "Stability results", "setting": "[3]; COMPOUND A 0.2% in Simulsol M45/Crodamol DA", "value": "Unstable"}, {"measurement": "Stability results", "setting": "[3]; COMPOUND A 0.2% in Tween 80/Hexylene glycol", "value": "Unstable"}, {"measurement": "Stability results", "setting": "[3]; COMPOUND A 0.2% in Tween 80/Lauroglycol FCC", "value": "Unstable"}, {"measurement": "Compound A in the receiving liquid", "setting": "[4]", "value": "not detected"}]}]}
